Reference: patent US9980943B2, “Methods of treating muscular dystrophy” (BOARD OF REGENTS OF THE NEVADA SYSTEM OF HIGHER EDUCATION, …, priority 2013, dated 2018)

Tests used:
Format in all cases: cell-based, mouse
[1] = tested on: α7 integrin (LacZ reporter in α7βgal+/− myoblasts); assay: Myoblast α7+/LacZ integrin FDG assay (Burkin assay in myoblasts, 96-well); details: α7+/LacZ myoblasts, 96-well
[2] = tested on: α7 integrin (LacZ reporter in α7+/LacZ myotubes); assay: Myotube α7 integrin FDG assay (Burkin assay in myotubes, 96-well); details: myotubes
[3] = tested on: β-galactosidase in CMV-LacZ C2C12 myoblasts; assay: CMV-LacZ secondary screen in C2C12 myoblasts (β-Gal stabilizing assay); details: CMV-LacZ C2C12 myoblasts
Procedure, shortened: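 β-Gal level was the read-out, measured in a clonal C2C12 line expressing LacZ from a CMV promoter. Dose-response curves used six concentrations, 0.5 μM up to 40 μM, with duplicate points.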

[4] = tested on: β-galactosidase in CMV-LacZ C2C12 myotubes; assay: CMV-LacZ secondary screen in C2C12 myotubes (β-Gal stabilizing assay); details: C2C12 CMV-LacZ myotubes, fold relative to DMSO
Procedure, shortened: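 CMV-LacZ C2C12 line (clonal, FDG-screened); myoblasts/myotubes dosed 0.5–40 μM (0.5, 1, 5, 10, 20, 40 μM); n=2 per point; β-gal stabilization read-out.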

Row | Structure (SMILES) | Burkin Assay in Myoblasts, signal relative to DMSO ([1]; 0.5 uM) | Burkin Assay in Myoblasts, signal relative to DMSO ([1]; 1 uM) | Burkin Assay in Myoblasts, signal relative to DMSO ([1]; 5 uM) | Burkin Assay in Myoblasts, signal relative to DMSO ([1]; 10 uM) | Burkin Assay in Myoblasts, signal relative to DMSO ([1]; 20 uM) | Burkin Assay in Myoblasts, signal relative to DMSO ([1]; 40 uM) | Burkin Assay in Myotubes, α7 integrin LacZ reporter signal relative to DMSO ([2]; 0.5 uM) | Burkin Assay in Myotubes, α7 integrin LacZ reporter signal relative to DMSO ([2]; 1 uM) | Burkin Assay in Myotubes, α7 integrin LacZ reporter signal relative to DMSO ([2]; 5 uM) | Burkin Assay in Myotubes, α7 integrin LacZ reporter signal relative to DMSO ([2]; 10 uM) | Burkin Assay in Myotubes, α7 integrin LacZ reporter signal relative to DMSO ([2]; 20 uM) | Burkin Assay in Myotubes, α7 integrin LacZ reporter signal relative to DMSO ([2]; 40 uM) | CMV-LACZ in Myoblasts (β-galactosidase activity relative to DMSO) ([3]; 0.5 uM) | CMV-LACZ in Myoblasts (β-galactosidase activity relative to DMSO) ([3]; 1 uM) | CMV-LACZ in Myoblasts (β-galactosidase activity relative to DMSO) ([3]; 5 uM) | CMV-LACZ in Myoblasts (β-galactosidase activity relative to DMSO) ([3]; 10 uM) | CMV-LACZ in Myoblasts (β-galactosidase activity relative to DMSO) ([3]; 20 uM) | CMV-LACZ in Myoblasts (β-galactosidase activity relative to DMSO) ([3]; 40 uM) | CMV-LACZ in Myotubes, signal relative to DMSO ([4]; 0.5 uM) | CMV-LACZ in Myotubes, signal relative to DMSO ([4]; 1 uM) | also measured
1 | Nc1ncnc(N2CCc3ccccc32)c1[N+](=O)[O-] [MLS000683232-01] | 1.234 | 1.199 | 1.6445 | 1.778 | 1.821 | 1.654 | 1.136 | 1.2778 | 1.272 | 1.448 | 1.4149 | 1.32 | 0.8043 | 0.7131 | 0.5638 | 0.5224 | 0.6119 | 0.8237 | 0.8200 | 0.7752 | MT FOLD INCREASE ([2]; maximum response): 1.7 fold; EC50 ([2]; nonlinear regression of dose-response curves, read-out: EC50 α7+/LacZ MT): 5.3 µM; CMV-LACZ in Myotubes, signal relative to DMSO ([4]; 5 uM): 0.8743; CMV-LACZ in Myotubes, signal relative to DMSO ([4]; 10 uM): 1.0086; CMV-LACZ in Myotubes, signal relative to DMSO ([4]; 20 uM): 0.8835; CMV-LACZ in Myotubes, signal relative to DMSO ([4]; 40 uM): 0.8365
2 | Cc1cc(OCC(=O)NC(C)C)ccc1Cl [MLS000684034-01] | 0.999 | 1.02 | 0.7872 | 0.6258 | 0.4225 | 0.3085 | 0.9731 | 0.9536 | 0.8383 | 0.8076 | 0.7403 | 0.7385 | 1.2525 | 1.1492 | 1.2045 | 1.0568 | 0.5374 | 0.3100 | 1.0962 | 0.9810 | CMV-LACZ in Myotubes, signal relative to DMSO ([4]; 5 uM): 1.1407; CMV-LACZ in Myotubes, signal relative to DMSO ([4]; 10 uM): 1.1903; CMV-LACZ in Myotubes, signal relative to DMSO ([4]; 20 uM): 1.2347; CMV-LACZ in Myotubes, signal relative to DMSO ([4]; 40 uM): 1.0105
3 | CCc1nc2ccccc2c(C(=O)NCc2ccccc2)c1C [MLS000688267-01] | 1.092 | 1.104 | 1.358 | 0.9133 | 1.0466 | 1.107 | 0.9011 | 0.8373 | 1.132 | 1.101 | 0.8808 | 1.131 | 1.0950 | 1.1579 | 0.9129 | 0.8935 | 1.1407 | 1.0774 | 0.8648 | 1.1333 | CMV-LACZ in Myotubes, signal relative to DMSO ([4]; 5 uM): 0.9634; CMV-LACZ in Myotubes, signal relative to DMSO ([4]; 10 uM): 1.2248; CMV-LACZ in Myotubes, signal relative to DMSO ([4]; 20 uM): 0.9505; CMV-LACZ in Myotubes, signal relative to DMSO ([4]; 40 uM): 1.1505
4 | N#C/C(=C/c1ccc(N2CCOCC2)o1)C(=O)Nc1ccccc1 [MLS000689218-01] | 1.068 | 1.171 | 1.132 | 1.051 | 1.07 | 1.037 | 0.9663 | 1.083 | 0.97 | 0.9829 | 1.008 | 0.9676 | 1.1977 | 1.2273 | 0.8689 | 1.0813 | 1.2835 | 1.6337 | 0.9657 | 0.9514 | CMV-LACZ in Myotubes, signal relative to DMSO ([4]; 5 uM): 1.3684; CMV-LACZ in Myotubes, signal relative to DMSO ([4]; 10 uM): 1.2135; CMV-LACZ in Myotubes, signal relative to DMSO ([4]; 20 uM): 1.4900; CMV-LACZ in Myotubes, signal relative to DMSO ([4]; 40 uM): 1.7990
5 | O=C(Cn1nc(-c2ccc(Cl)cc2)ccc1=O)N1CCC2(CC1)OCCO2 [MLS000689492-01] | 1.073 | 0.908 | 0.94 | 0.9431 | 1.083 | 0.9652 | 1.156 | 1.138 | 0.9311 | 0.9292 | 0.8836 | 0.7544 | 0.9363 | 1.0252 | 1.0863 | 0.8653 | 1.0141 | 1.0026 | 1.0853 | 1.2400 | CMV-LACZ in Myotubes, signal relative to DMSO ([4]; 5 uM): 1.0504; CMV-LACZ in Myotubes, signal relative to DMSO ([4]; 10 uM): 1.0940; CMV-LACZ in Myotubes, signal relative to DMSO ([4]; 20 uM): 1.0444; CMV-LACZ in Myotubes, signal relative to DMSO ([4]; 40 uM): 0.9267
6 | CCCCN(CC)Cc1ccc(CNC(=S)Nc2ccccc2F)o1 [MLS000689562-01] | 1.074 | 1.014 | 1.013 | 1.224 | 0.9537 | 0.8817 | 1.081 | 1.035 | 0.9788 | 1.0159 | 0.7236 | 0.8547 | 0.8453 | 0.7409 | 0.8060 | 1.0858 | 0.9919 | 1.0619 | 0.9474 | 0.8652 | CMV-LACZ in Myotubes, signal relative to DMSO ([4]; 5 uM): 1.0300; CMV-LACZ in Myotubes, signal relative to DMSO ([4]; 10 uM): 0.8105; CMV-LACZ in Myotubes, signal relative to DMSO ([4]; 20 uM): 0.9824; CMV-LACZ in Myotubes, signal relative to DMSO ([4]; 40 uM): 0.9788
